Assay results taken from patent US20250296959A1, “B7-H3 TARGETING PEPTIDES AND CONSTRUCTS THEREOF” (Mariana Oncology Inc., priority 2024, published 2025).
pKd: −log10 of the molar value. Where two headings read alike, the source gives them in different places. Starred links: 1 amine or outer side, 2 acyl side, 3 side chain; linkers in the order of their positions; H or OH if unused. Positions of bridges follow the written chain, without caps; N, C: chain ends. Non-standard residues stand in square brackets, D forms with d. Residues, ends and D or L forms follow the SMILES beside them. Groups on a side chain read outwards from the residue. *: point of attachment. Ala(1-CH2CO2H-4-piperidyl) = N[C@@H](CC1CCN(CC(=O)O)CC1)C(=O)O; Ala(piperidin-4-yl) = O=C([C@H](CC1CCN([*:3])CC1)N[*:1])[*:2]; DOTA = O=C(O)CN1CCN(CC(=O)O)CCN(CC(=O)*)CCN(CC(=O)O)CC1; Trp(5-F) = N[C@@H](Cc1c[nH]c2ccc(F)cc12)C(=O)O; X1 = C[C@@H](c1ccccc1)[C@H](N[*:1])C(=O)[*:2]; Ala(4-THP) = N[C@@H](CC1CCOCC1)C(=O)O; Val(3-OH) = CC(C)(O)[C@H](N)C(=O)O; PEG4 = NCCOCCOCCOCCOCCC(=O)O; Tle = CC(C)(C)[C@H](N)C(=O)O; hLeu = CC(C)CC[C@H](N)C(=O)O

How the values were obtained:
[1] = test system: Calu-6 cell line; test: Cell associated (bound) fraction of [177Lu]Lu-labeled peptide in Calu-6 cells; assay type: cell-based, Human; conditions: 1 hour, 37° C.
Outline: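 Detached B7-H3-expressing human lung cancer cells at 5 million/mL were exposed for 1 hour at 37 °C to 0.8 μCi of the 177Lu-labelled peptide, which was formulated in 1% PBSA after labelling at 80 °C, pH ~5. Supernatant and two cold washes counted as unbound, and resuspended cells gamma-counted as the cell-associated fraction.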

[2] = molecular target: T1, human 4lg B7-H3 (Homo sapiens, UniProt Q5ZPR3); test: Affinity determination by surface plasmon resonance (SPR) to 4Ig B7-H3; conditions: 4Ig B7-H3, 37° C. flow cell temperature
T1 sequence (Q5ZPR3 29-534): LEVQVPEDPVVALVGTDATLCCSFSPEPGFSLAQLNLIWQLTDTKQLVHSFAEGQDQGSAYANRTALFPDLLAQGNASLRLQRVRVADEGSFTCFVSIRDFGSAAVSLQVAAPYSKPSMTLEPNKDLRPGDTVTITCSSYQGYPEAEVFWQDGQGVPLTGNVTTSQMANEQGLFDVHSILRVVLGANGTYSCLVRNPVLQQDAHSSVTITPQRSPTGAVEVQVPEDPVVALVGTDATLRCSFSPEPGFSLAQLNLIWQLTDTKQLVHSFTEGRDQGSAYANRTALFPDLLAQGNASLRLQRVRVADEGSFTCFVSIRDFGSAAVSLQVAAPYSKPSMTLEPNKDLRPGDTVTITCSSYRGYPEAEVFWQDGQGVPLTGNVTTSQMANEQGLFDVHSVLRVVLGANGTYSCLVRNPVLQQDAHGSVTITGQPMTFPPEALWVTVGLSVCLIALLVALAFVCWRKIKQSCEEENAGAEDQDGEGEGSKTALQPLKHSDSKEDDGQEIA

[3] = test system: Calu-6 cell line; test: Net internalization of [177Lu]Lu-labeled peptide in Calu-6 cells; assay type: cell-based, Human; conditions: 1 hour, 37° C., glycine pH 2.5 acid wash
Outline: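 Calu-6 cells, human non-engineered lung cancer expressing B7-H3, resuspended in 1% PBSA at 5 million cells/mL and incubated with the 177Lu-labeled conjugate (labeled at 80 °C, pH ~5, RP-HPLC checked). Gamma counting of the bound fraction, then of the pellet after two glycine pH 2.5 acid strips and NaOH lysis, gives internalized activity.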

Compound	% cell associated fraction [1]	pKd ([2]; read-out: SPR KD—37° C.)	% net internalization [3]	pKd ([2]; SPR KD—37° C.)
CC(=O)N[C@@H](CCC(C)C)C(=O)N[C@@H](Cc1ccc(O)cc1)C(=O)N[C@H]1CSSC[C@@H](C(=O)N[C@@H](Cc2c[nH]c3ccc(F)cc23)C(=O)N[C@@H](Cc2ccccc2)C(=O)N[C@H](C(=O)N[C@H](CO)C(N)=O)C(C)(C)O)NC(=O)[C@H](Cc2ccc(O)cc2)NC(=O)[C@H](C(C)C)NC(=O)[C@H](CC(=O)O)NC(=O)[C@H](CC2CCOCC2)NC(=O)[C@H](CC2CCN(C(=O)CCOCCOCCOCCOCCNC(=O)CN3CCN(CC(=O)O)CCN(CC(=O)O)CCN(CC(=O)O)CC3)CC2)NC(=O)CNC(=O)[C@H](C(C)(C)C)NC1=O [compound 407, Ac-hLeu-Y-C-Tbg-G-Pip(PEG4-DOTA)Ala-ThpA-D-V-Y-C-5FW-F-hydroxyVal-dSer-CONH2] (Ac-[hLeu]YC[Tle]G[Ala(piperidin-4-yl)]([PEG4-DOTA])[Ala(4-THP)]DVYC[Trp(5-F)]F[Val(3-OH)][dS]-NH2; disulfide 3-11)	C (%>50)	> 9.00	A (%≤25)	
CC(=O)N[C@@H](CCC(C)C)C(=O)N[C@@H](Cc1ccc(O)cc1)C(=O)N[C@H]1CSSC[C@@H](C(=O)N[C@@H](Cc2c[nH]c3ccc(F)cc23)C(=O)N[C@@H](Cc2ccccc2)C(=O)N[C@H](C(=O)N[C@H](CCCCNC(=O)CN2CCN(CC(=O)O)CCN(CC(=O)O)CCN(CC(=O)O)CC2)C(=O)O)C(C)(C)O)NC(=O)[C@H](Cc2ccc(O)cc2)NC(=O)[C@H](C(C)C)NC(=O)[C@H](CC(=O)O)NC(=O)[C@H](CC2CCOCC2)NC(=O)[C@H](CC2CCN(CC(=O)O)CC2)NC(=O)CNC(=O)[C@H](C(C)(C)C)NC1=O [compound 339, Ac-hLeu-Y-C-Tbg-G-[Pip(CH2CO2H)Ala]-ThpA-D-V-Y-C-5FW-F-hydroxyVal-dLys(DOTA)-COOH] (Ac-[hLeu]YC[Tle]G[Ala(1-CH2CO2H-4-piperidyl)][Ala(4-THP)]DVYC[Trp(5-F)]F[Val(3-OH)][dK](DOTA)-OH; disulfide 3-11)	C (%>50)	> 9.00	B (25<%≤50)	
CC(=O)N[C@@H](CCC(C)C)C(=O)N[C@@H](Cc1ccc(O)cc1)C(=O)N[C@H]1CSSC[C@@H](C(=O)N[C@@H](Cc2c[nH]c3ccc(F)cc23)C(=O)N[C@@H](Cc2ccccc2)C(=O)N[C@H](C(=O)N[C@H](CCCCNC(=O)CN2CCN(CC(=O)O)CCN(CC(=O)O)CCN(CC(=O)O)CC2)C(N)=O)C(C)(C)O)NC(=O)[C@H](Cc2ccc(O)cc2)NC(=O)[C@H](C(C)C)NC(=O)[C@H](CC(=O)O)NC(=O)[C@H](CC2CCOCC2)NC(=O)[C@H](CCCCN)NC(=O)CNC(=O)[C@H](C(C)(C)C)NC1=O [compound 366, Ac-hLeu-Y-C-Tbg-G-K-ThpA-D-V-Y-C-5FW-F-hydroxyVal-dLys(DOTA)-CONH2] (Ac-[hLeu]YC[Tle]GK[Ala(4-THP)]DVYC[Trp(5-F)]F[Val(3-OH)][dK](DOTA)-NH2; disulfide 3-11)	B (25<%≤50)		A (%≤25)	> 9.00
CC(=O)N[C@@H](CCC(C)C)C(=O)N[C@@H](Cc1ccc(O)cc1)C(=O)N[C@H]1CSSC[C@@H](C(=O)N[C@@H](Cc2c[nH]c3ccc(F)cc23)C(=O)N[C@H](C(=O)N[C@H](C(=O)N[C@H](CCCCNC(=O)CN2CCN(CC(=O)O)CCN(CC(=O)O)CCN(CC(=O)O)CC2)C(=O)O)C(C)(C)O)[C@@H](C)c2ccccc2)NC(=O)[C@H](Cc2ccc(O)cc2)NC(=O)[C@H](C(C)C)NC(=O)[C@H](CC(=O)O)NC(=O)[C@H](CC2CCOCC2)NC(=O)[C@H](CC2CCN(CC(=O)O)CC2)NC(=O)CNC(=O)[C@H](C(C)(C)C)NC1=O [compound 497, Ac-hLeu-Y-C-Tbg-G-Pip(CH2COOH)Ala-ThpA-D-V-Y-C-5FW-[(2S, 3S)beta-Me-Phe]-hydroxyVal-dLys(DOTA)-COOH] (Ac-[hLeu]YC[Tle]G[Ala(1-CH2CO2H-4-piperidyl)][Ala(4-THP)]DVYC[Trp(5-F)][X1][Val(3-OH)][dK](DOTA)-OH; disulfide 3-11)	C (%>50)	> 9.00	A (%≤25)	
